Measurements from publication PMC6354023, “A phase I study of the HDM2 antagonist SAR405838 combined with the MEK inhibitor pimasertib in patients with advanced solid tumours” (British Journal of Cancer, 2018).
Like-named read-outs stand apart in the source and are kept apart here.

Tests used:
[1] = Safety assessments: adverse events (NCI-CTCAE v4.03), laboratory abnormalities; assay type: in vivo, human; settings: of 26 treated patients, in combination
Procedure: Safety was assessed by the evaluation of AEs, DLTs, changes in vital signs, ECOG PS, physical examinations,12-lead electrocardiograms, determination of LVEF, ophthalmological examinations and clinical laboratory tests (including haematology, coagulation, blood chemistry and urinalysis).

[2] = Pharmacokinetics of SAR405838 (whole-blood concentrations) in combination; assay type: in vivo, human; settings: SAR405838 and pimasertib administered in combination
Excerpt: (§1) Blood samples were collected on Days 1 (for pimasertib only), 2, 3, 8 and 15 of Cycle 1, on Days 1 and 2 of Cycle 2, and on Day 1 of Cycles 3 and 4, to determine the whole-blood and plasma concentrations of SAR405838 and pimasertib, respectively.

[3] = Pharmacokinetics of pimasertib (plasma concentrations) in combination; assay type: in vivo, human; settings: for AUC(0-t) / Cmax / half-life / Tmax: human, plasma, oral; for AUC(0-t): read-out: Pimasertib AUC0–12, mean ± SD; for Cmax: read-out: Pimasertib Cmax, mean ± SD; for half-life: read-out: Pimasertib t1/2 (converted); for Tmax: read-out: Pimasertib tmax, median (range)
Excerpt: as §1

pERK = pERK levels in PMA-stimulated PBMCs by flow cytometry; assay type: in vivo, human
Procedure: MIC-1 protein concentrations were measured in plasma samples using an analytically validated enzyme-linked immunosorbent assay (Quantikine® Human GDF-15 immunoassay). pERK levels were determined by evaluating median value changes in response to ex vivo stimulation with or without phorbol myristate acetate (PMA) over time in whole-blood samples (CD 45^+ and lymphocyte populations) by flow cytometry (BD FACSCanto™ II instrument). Stimulated pERK levels were calculated as percentage (PMA-dimethylsulphoxide [DMSO])/DMSO).

[4] = set-up: method as in doi:10.1016/S0959-8049(12)72401-2; settings: cited from earlier work
[5] = DL1 SAR405838 200 mg QD + pimasertib 45 mg BID, C1D2
[6] = DL1 SAR405838 200 mg QD + pimasertib 45 mg BID, C2D1
[7] = DL2a SAR405838 200 mg QD + pimasertib 60 mg QD, C1D1
[8] = DL2a SAR405838 200 mg QD + pimasertib 60 mg QD, C1D2
[9] = DL2b SAR405838 300 mg QD + pimasertib 45 mg BID, C1D1
[10] = DL2b SAR405838 300 mg QD + pimasertib 45 mg BID, C1D2
[11] = DL2b SAR405838 300 mg QD + pimasertib 45 mg BID, C2D1
[12] = DL3a SAR405838 300 mg QD + pimasertib 60 mg QD, C1D1
[13] = DL3a SAR405838 300 mg QD + pimasertib 60 mg QD, C1D2
[14] = DL3a SAR405838 300 mg QD + pimasertib 60 mg QD, C2D1
[15] = DL1 SAR405838 200 mg QD + pimasertib 45 mg BID, C1D1
[16] = DL2a SAR405838 200 mg QD + pimasertib 60 mg QD, C2D1

Q: For `O=C(NC[C@H](O)CO)c1ccncc1Nc1ccc(I)cc1F` [pimasertib], which “Patients with dose modification, reduction or omission” value [1] is on record?
A: Its value is 18 patients.

Q: And the “PK in combination compared with PK as monotherapy” value [2]?
A: Its value is “similar”.

Q: What about the “Pimasertib tmax, median (range)” value [3, 5] of the same compound?
A: The value was 1.5 [0.5–2] (7) h.

Q: And the “Pimasertib tmax, median (range)” value [3, 6]?
A: Its value is 1.5 [0.5–1.5] (6) h.

Q: And the “Pimasertib AUC0–12, mean ± SD” value [3, 7]?
A: The value was 1120 ± 410 (4; 37) ng.h/mL.

Q: What about the “Pimasertib tmax, median (range)” value [3, 7] of the same compound?
A: Its value is 1.5 [0.5–1.5] (4) h.

Q: And the “Pimasertib AUC0–12, mean ± SD” value [3, 8]?
A: The value was 1130 ± 422 (4; 37) ng.h/mL.

Q: And the “Pimasertib tmax, median (range)” value [3, 9]?
A: Its value is 1.5 [0.5–1.5] (7) h.

Q: What about the “Pimasertib tmax, median (range)” value [3, 10] of the same compound?
A: Its value is 1.5 [1.5–2] (7) h.

Q: And the “Pimasertib tmax, median (range)” value [3, 11]?
A: The value was 1.5 [0.5–2] (6) h.

Q: What about the “Pimasertib t1/2” value [3, 12] of the same compound?
A: Its value is 5.25 ± 1.83 (7; 35) h.

Q: What about the “Pimasertib tmax, median (range)” value [3, 13] of the same compound?
A: The value was 1.5 [0.5-2] (7) h.

Q: And the “Pimasertib tmax, median (range)” value [3, 14]?
A: The value was 1.5 [0.5–1.5] (5) h.

Q: What about the “Exposure change with dose increase (33%)” value ([3]; between DL1/DL2b (pimasertib 45 mg BID) and DL2a/DL3a (pimasertib 60 mg BID)) of the same compound?
A: The value was “resulted in pimasertib exposure increase”.

Q: And the AUC(0-t) [3, 15]?
A: Its AUC(0-t) is 755 ± 382 ng·h/mL.

Q: What about the Cmax [3, 15] of the same compound?
A: The Cmax was 218 ± 108 ng/mL.

Q: What about the half-life [3, 15] of the same compound?
A: Its half-life is 4.76 ± 1.17 h.

Q: What about the Tmax [3, 15] of the same compound?
A: The Tmax was 0.5 h.

Q: And the AUC(0-t) [3, 5]?
A: The AUC(0-t) was 689 ± 324 ng·h/mL.

Q: And the Cmax [3, 5]?
A: The Cmax was 200 ± 102 ng/mL.

Q: And the AUC(0-t) [3, 6]?
A: The AUC(0-t) was 862 ± 350 ng·h/mL.

Q: What about the Cmax [3, 6] of the same compound?
A: The Cmax was 226 ± 70.6 ng/mL.

Q: What about the Cmax [3, 7] of the same compound?
A: The Cmax was 301 ± 69.9 ng/mL.

Q: What about the half-life [3, 7] of the same compound?
A: The half-life was 5.38 ± 0.276 h.

Q: What about the Cmax [3, 8] of the same compound?
A: The Cmax was 303 ± 134 ng/mL.

Q: And the Tmax [3, 8]?
A: Its Tmax is 1 h.

Q: What about the AUC(0-t) [3, 16] of the same compound?
A: The AUC(0-t) was 1040 ± 504 ng·h/mL.

Q: And the Cmax [3, 16]?
A: Its Cmax is 269 ± 134 ng/mL.

Q: And the AUC(0-t) [3, 9]?
A: The AUC(0-t) was 779 ± 594 ng·h/mL.

Q: What about the Cmax [3, 9] of the same compound?
A: Its Cmax is 184 ± 109 ng/mL.

Q: What about the half-life [3, 9] of the same compound?
A: The half-life was 4.71 ± 1.39 h.

Q: And the AUC(0-t) [3, 10]?
A: The AUC(0-t) was 684 ± 367 ng·h/mL.

Q: And the Cmax [3, 10]?
A: Its Cmax is 182 ± 110 ng/mL.

Q: And the AUC(0-t) [3, 11]?
A: Its AUC(0-t) is 532 ± 166 ng·h/mL.

Q: What about the Cmax [3, 11] of the same compound?
A: The Cmax was 147 ± 93.8 ng/mL.

Q: What about the AUC(0-t) [3, 12] of the same compound?
A: Its AUC(0-t) is 935 ± 469 ng·h/mL.

Q: What about the Cmax [3, 12] of the same compound?
A: The Cmax was 221 ± 98.3 ng/mL.

Q: And the Tmax [3, 12]?
A: Its Tmax is 1 h.

Q: What about the AUC(0-t) [3, 13] of the same compound?
A: The AUC(0-t) was 917 ± 390 ng·h/mL.

Q: What about the Cmax [3, 13] of the same compound?
A: Its Cmax is 200 ± 84.4 ng/mL.

Q: What about the AUC(0-t) [3, 14] of the same compound?
A: Its AUC(0-t) is 765 ± 314 ng·h/mL.

Q: And the Cmax [3, 14]?
A: Its Cmax is 243 ± 65.4 ng/mL.

Q: What about the “Time pERK inhibition was maintained” value (pERK) of the same compound?
A: Its value is 4 h.

Q: What about the pERK inhibition (pERK; C1D1, C1D2 and C2D1, at or around tmax of pimasertib, at most DLs) of the same compound?
A: The pERK inhibition was ≥ 80%.

Q: And the “Recommended phase II dose, monotherapy” value ([4]; BID)?
A: The value was 60 mg.

Q: What about the “MTD, monotherapy, QD regimen” value ([4]; once daily) of the same compound?
A: The value was 90 mg.

Q: And the “DLTs, monotherapy” value ([4]; phase I dose-escalation trial)?
A: The value was “skin rash, acneiform dermatitis, ocular events and stomatitis”.

Q: What about the “MTD, monotherapy, BID regimen” value ([4]; twice daily) of the same compound?
A: Its value is 60 mg.
